In publication PMC11722285, “Exploring the Potential of Malvidin and Echiodinin as Probable Antileishmanial Agents Through In Silico Analysis and In Vitro Efficacy” (Molecules, 2025):
Where two headings read alike, the source gives them in different places.

Tests used:
Type in all cases: cell-based
[1] = test system: L. amazonensis stationary promastigotes; assay: In vitro antileishmanial activity, stationary promastigotes (MTT); conditions: for IC50: Leishmania amazonensis, 48 h, read-out: IC50 (µM) Stationary Promastigotes L. amazonensis; for Selectivity Index (SI) Stationary Promastigotes L. amazonensis: ratio between CC50 (macrophages) and IC50
Description: (§1) L. amazonensis (IFLA/BR/1967/PH-8), L. braziliensis (MHOM/BR/1975/M2903), and L. infantum (MHOM/BR/1970/BH46) were used as parasites. Stationary promastigotes were grown at a 24 °C in complete Schneider’s medium (Sigma-Aldrich, St. Louis, MO, USA), which was composed of medium plus 20% (v/v) heat-inactivated fetal bovine serum (FBS; Sigma-Aldrich, USA) and 20 mM L-glutamine with a pH of 7.4 [139]. To obtain the axenic amastigotes, 10^9 stationary promastigotes were washed three times in sterile phosphate-buffered saline (PBS 1X and incubated in 5 mL FBS for 48 h (L. amazonensis and L. braziliensis) and 72 h (L. infantum), respectively, at 37 °C. Parasites were washed in cold PBS 1x, and their morphology was evaluated after staining using the Giemsa method in an optical microscope, as previously described.
(§2) AmpB (0 to 10.8 µM; Sigma-Aldrich, USA) was used as control. Cell viability was assessed through 3-(4.5-dimethylthiazol-2-yl)-2.5-diphenyl tetrazolium bromide (Sigma-Aldrich, USA) method. Optical density (OD) values were measured in a microplate spectrophotometer (Molecular Devices, Spectra Max Plus, San Jose, CA, USA) at 570 nm. IC50 values were calculated by sigmoidal regression of dose–response curves in Microsoft Excel software (version 10.0). Two-tailed Student’s t-tests (p < 0.05) were used to compare IC50 values between malvidin and echioidinin, assessing significant differences in inhibitory activity.

[2] = test system: L. braziliensis stationary promastigotes; assay: as above; conditions: for IC50: Leishmania braziliensis, 48 h, read-out: IC50 (µM) Stationary Promastigotes L. braziliensis; for Selectivity Index (SI) Stationary Promastigotes L. braziliensis: ratio between CC50 (macrophages) and IC50
Description: as §1, §2

[3] = test system: L. infantum stationary promastigotes; assay: as above; conditions: for IC50: Leishmania infantum, 48 h, read-out: IC50 (µM) Stationary Promastigotes L. infantum; for Selectivity Index (SI) Stationary Promastigotes L. infantum: ratio between CC50 (macrophages) and IC50
Description: as §1, §2

[4] = test system: L. amazonensis axenic amastigotes; assay: In vitro antileishmanial activity, axenic amastigotes (MTT); conditions: for IC50: Leishmania amazonensis, 48 h, read-out: IC50 (µM) Axenic amastigotes L. amazonensis; for Selectivity Index (SI) Axenic amastigotes L. amazonensis: ratio between CC50 (macrophages) and IC50
Description: as §1, §2

[5] = test system: L. braziliensis axenic amastigotes; assay: as above; conditions: for IC50: Leishmania braziliensis, 48 h, read-out: IC50 (µM) Axenic amastigotes L. braziliensis; for Selectivity Index (SI) Axenic amastigotes L. braziliensis: ratio between CC50 (macrophages) and IC50
Description: as §1, §2

[6] = test system: L. infantum axenic amastigotes; assay: as above; conditions: for IC50: Leishmania infantum, 48 h, read-out: IC50 (µM) Axenic amastigotes L. infantum; for Selectivity Index (SI) Axenic amastigotes L. infantum: ratio between CC50 (macrophages) and IC50
Description: as §1, §2

[7] = Cytotoxicity assay in macrophages (MTT); conditions: mouse, murine macrophages, mean ± SD
Description: Cytotoxicity was evaluated ex vivo in murine macrophages and human red blood cells, for which concentrations inhibiting 50% of macrophages (CC50) and red blood cells (RBC50) were determined. […] Cells were incubated in RPMI 1640 medium for 48 h (murine macrophages) or 1 h (red blood cells) at 37 °C in 5% CO2. Macrophage viability was assessed using the MTT method. The red blood cell suspension was centrifuged at 1000× g for 10 min at 4 °C, after which the percentage of cell lysis was evaluated spectrophotometrically at 570 nm. The hemolysis was determined by replacing the natural products with an equal volume of phosphate-buffered saline with a pH of 7.4 (PBS—negative control) or distilled water (positive control). CC50 and RBC50 values were calculated by sigmoidal regression of dose–response curves in Microsoft Excel software (version 10.0). SI was calculated as the ratio between CC50 and IC50 values.

O+ human red blood cells = assay: Hemolytic activity; conditions: lysis of 50% of O+ human red blood cells; 1 h; mean ± SD
Description: Cytotoxicity was evaluated ex vivo in murine macrophages and human red blood cells, for which concentrations inhibiting 50% of macrophages (CC50) and red blood cells (RBC50) were determined. Briefly, murine cells (5 × 10^5) or a 5% human red blood cells suspension were incubated in the presence of malvidin (0 to 301.84 µM) or echioidinin (0 to 356.76 µM) AmpB (0 to 10.82 µM) was used as control. Cells were incubated in RPMI 1640 medium for 48 h (murine macrophages) or 1 h (red blood cells) at 37 °C in 5% CO2. Macrophage viability was assessed using the MTT method. The red blood cell suspension was centrifuged at 1000× g for 10 min at 4 °C, after which the percentage of cell lysis was evaluated spectrophotometrically at 570 nm. The hemolysis was determined by replacing the natural products with an equal volume of phosphate-buffered saline with a pH of 7.4 (PBS—negative control) or distilled water (positive control). CC50 and RBC50 values were calculated by sigmoidal regression of dose–response curves in Microsoft Excel software (version 10.0). SI was calculated as the ratio between CC50 and IC50 values.

[8] = test system: L. amazonensis-infected murine macrophages; assay: Treatment of infected macrophages; conditions: 48 h
Description: (§3) To evaluate the efficacy of malvidin or echioidinin for treating infected macrophages, murine cells (5 × 10^5) were plated on round glass coverslips in 24-well plates in RPMI 1640 medium supplemented with 20% (v/v) FBS and 20 mM L-glutamine at a pH of 7.4 and incubated for 24 h at 37 °C in 5% CO2. Stationary promastigotes were added to the wells at a ratio of 10 parasites per macrophage, and cultures were incubated further for 48 h at 37 °C for 5% CO2. Free parasites were removed by extensive washing with RPMI 1640 medium, and infected macrophages were treated with malvidin (30.18, 60.37, and 120.74 µM), echioidinin (35.18, 70.36, and 140.72 µM), or AmpB (2.70 and 5.41 µM) for 48 h at […] in 5% CO2. After fixation with 4% paraformaldehyde, cells were washed and stained with Giemsa, and the infection percentage, the number of amastigotes per infected macrophage, and the reduction in the infection percentage were determined by counting 200 cells in triplicate, using an optical microscope.

[9] = test system: L. braziliensis-infected murine macrophages; assay: Treatment of infected macrophages; conditions: 48 h
Description: as §3

[10] = test system: L. infantum-infected murine macrophages; assay: Treatment of infected macrophages; conditions: 48 h
Description: as §3

[11] = stationary promastigotes, mean ± SD

For `COc1cc(O)c2c(=O)cc(-c3ccccc3O)oc2c1` [Echioidinin, echioidinin], the IC50 [1, 11] was 273 ± 29 µM, the “Selectivity Index (SI) Stationary Promastigotes L. amazonensis” value [1] was 10.80 and the IC50 [2, 11] was 251 ± 22 µM. The “Selectivity Index (SI) Stationary Promastigotes L. braziliensis” value [2] was 12.10, the IC50 [3, 11] was 213 ± 16 µM and the “Selectivity Index (SI) Stationary Promastigotes L. infantum” value [3] was 14.00. The IC50 ([4]; axenic amastigotes, mean ± SD) was 336 ± 19 µM, the “Selectivity Index (SI) Axenic amastigotes L. amazonensis” value [4] was 8.90 and the IC50 ([5]; axenic amastigotes, mean ± SD) was 293 ± 20 µM. For the same compound, the “Selectivity Index (SI) Axenic amastigotes L. braziliensis” value [5] was 10.30, the IC50 ([6]; axenic amastigotes, mean ± SD) was 262 ± 17 µM and the “Selectivity Index (SI) Axenic amastigotes L. infantum” value [6] was 11.60. The CC50 at 48 h [7] was 3010 ± 114 µM, the “RBC50” value (O+ human red blood cells) was 3400.76 ± 78 µM and the “Infection After Treatment (%)” value ([8]; 35.18 µM) was 80.20%. The “Infectiveness Reduction (%)” value ([8]; 35.18 µM) was 13.11%, the “Number of Amastigotes per Macrophage” value ([8]; 35.18 µM) was 5.40 and the “Infection After Treatment (%)” value ([8]; 70.36 µM) was 71.80%. The “Infectiveness Reduction (%)” value ([8]; 70.36 µM) was 22.21%, the “Number of Amastigotes per Macrophage” value ([8]; 70.36 µM) was 3.70 and the “Infection After Treatment (%)” value ([8]; 140.72 µM) was 63.40%. For the same compound, the “Infectiveness Reduction (%)” value ([8]; 140.72 µM) was 31.31%, the “Number of Amastigotes per Macrophage” value ([8]; 140.72 µM) was 6.30 and the “Infection After Treatment (%)” value ([9]; 35.18 µM) was 56.50%. The “Infectiveness Reduction (%)” value ([9]; 35.18 µM) was 17.76%, the “Number of Amastigotes per Macrophage” value ([9]; 35.18 µM) was 6.40 and the “Infection After Treatment (%)” value ([9]; 70.36 µM) was 50.80%. For the same compound, the “Infectiveness Reduction (%)” value ([9]; 70.36 µM) was 26.06%, the “Number of Amastigotes per Macrophage” value ([9]; 70.36 µM) was 3.70 and the “Infection After Treatment (%)” value ([9]; 140.72 µM) was 43.20%. For the same compound, the “Infectiveness Reduction (%)” value ([9]; 140.72 µM) was 37.12%, the “Number of Amastigotes per Macrophage” value ([9]; 140.72 µM) was 3.70 and the “Infection After Treatment (%)” value ([10]; 35.18 µM) was 65.50%. For the same compound, the “Infectiveness Reduction (%)” value ([10]; 35.18 µM) was 12.08%, the “Number of Amastigotes per Macrophage” value ([10]; 35.18 µM) was 4.80 and the “Infection After Treatment (%)” value ([10]; 70.36 µM) was 58.70%. For the same compound, the “Infectiveness Reduction (%)” value ([10]; 70.36 µM) was 21.21%, the “Number of Amastigotes per Macrophage” value ([10]; 70.36 µM) was 2.80 and the “Infection After Treatment (%)” value ([10]; 140.72 µM) was 50.70%. The “Infectiveness Reduction (%)” value ([10]; 140.72 µM) was 31.95% and the “Number of Amastigotes per Macrophage” value ([10]; 140.72 µM) was 4.20.

With `COc1cc(-c2[o+]c3cc(O)cc(O)c3cc2O)cc(OC)c1O` [Malvidin, malvidin] the IC50 [1] was 198 ± 17 µM, the “Selectivity Index (SI) Stationary Promastigotes L. amazonensis” value [1] was 14.70 and the IC50 [2] was 164 ± 19 µM. The “Selectivity Index (SI) Stationary Promastigotes L. braziliensis” value [2] was 17.60, the IC50 [3] was 141 ± 26 µM and the “Selectivity Index (SI) Stationary Promastigotes L. infantum” value [3] was 20.70. For the same compound, the IC50 [4] was 258 ± 17 µM, the “Selectivity Index (SI) Axenic amastigotes L. amazonensis” value [4] was 11.30 and the IC50 [5] was 227.9 ± 1 µM. For the same compound, the “Selectivity Index (SI) Axenic amastigotes L. braziliensis” value [5] was 12.70, the IC50 [6] was 174 ± 19 µM and the “Selectivity Index (SI) Axenic amastigotes L. infantum” value [6] was 16.70. The “Selectivity Index (SI) Axenic amastigotes L. infantum” value ([6]; listed as malvidin) was 14.70, the CC50 at 48 h [7] was 2920 ± 80 µM and the “RBC50” value (O+ human red blood cells) was 3120.13 ± 107 µM. For the same compound, the “Infection After Treatment (%)” value ([8]; 30.18 µM) was 75.60%, the “Infectiveness Reduction (%)” value ([8]; 30.18 µM) was 18.09% and the “Number of Amastigotes per Macrophage” value ([8]; 30.18 µM) was 3.30. For the same compound, the “Infection After Treatment (%)” value ([8]; 60.37 µM) was 61.10%, the “Infectiveness Reduction (%)” value ([8]; 60.37 µM) was 33.80% and the “Number of Amastigotes per Macrophage” value ([8]; 60.37 µM) was 2.80. For the same compound, the “Infection After Treatment (%)” value ([8]; 120.74 µM) was 59.30%, the “Infectiveness Reduction (%)” value ([8]; 120.74 µM) was 35.75% and the “Number of Amastigotes per Macrophage” value ([8]; 120.74 µM) was 3.80. The “Infection After Treatment (%)” value ([9]; 30.18 µM) was 52.10%, the “Infectiveness Reduction (%)” value ([9]; 30.18 µM) was 24.16% and the “Number of Amastigotes per Macrophage” value ([9]; 30.18 µM) was 4.40. For the same compound, the “Infection After Treatment (%)” value ([9]; 60.37 µM) was 48.70%, the “Infectiveness Reduction (%)” value ([9]; 60.37 µM) was 29.11% and the “Number of Amastigotes per Macrophage” value ([9]; 60.37 µM) was 5.40. For the same compound, the “Infection After Treatment (%)” value ([9]; 120.74 µM) was 39.80%, the “Infectiveness Reduction (%)” value ([9]; 120.74 µM) was 42.07% and the “Number of Amastigotes per Macrophage” value ([9]; 120.74 µM) was 3.30. For the same compound, the “Infection After Treatment (%)” value ([10]; 30.18 µM) was 61.20%, the “Infectiveness Reduction (%)” value ([10]; 30.18 µM) was 17.85% and the “Number of Amastigotes per Macrophage” value ([10]; 30.18 µM) was 4.70. For the same compound, the “Infection After Treatment (%)” value ([10]; 60.37 µM) was 55.60%, the “Infectiveness Reduction (%)” value ([10]; 60.37 µM) was 25.37% and the “Number of Amastigotes per Macrophage” value ([10]; 60.37 µM) was 3.70. The “Infection After Treatment (%)” value ([10]; 120.74 µM) was 49.80%, the “Infectiveness Reduction (%)” value ([10]; 120.74 µM) was 33.15% and the “Number of Amastigotes per Macrophage” value ([10]; 120.74 µM) was 2.70.
